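Cultured in 96-well plates, cells were exposed to test compound for 48 hours across five concentrations. The concentration for 50% growth inhibition is given as GI50.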 The source made the active and inactive calls. No stated cut-off is given here; in the data, active = GI50 up to about 1.1 µM and inactive = higher.
Assays:
Test in all cases: inhibition of tumour cell growth, NCI panel, 48 h
HL-60 = test system: HL-60
HCC 2998 = test system: HCC 2998
OVCAR-3 = test system: OVCAR-3
IGROV-1 = test system: IGROV-1
SF-295 = test system: SF-295
MOLT-4 = test system: MOLT-4
NCI-H460 = test system: NCI-H460
M14 = test system: M14
SF-268 = test system: SF-268
SNB-75 = test system: SNB-75
OVCAR-8 = test system: OVCAR-8
DLD-1 = test system: DLD-1
SN12C = test system: SN12C
DMS-114 = test system: DMS-114
NCI-H522 = test system: NCI-H522
HOP-92 = test system: HOP-92
K562 = test system: K562
T47D = test system: T47D
XF498 = test system: XF498
KM12 = test system: KM12
PC-3 = test system: PC-3
SK-OV-3 = test system: SK-OV-3
A549 = test system: A549
Hs-578T = test system: Hs-578T
DU-145 = test system: DU-145
ACHN = test system: ACHN
SNB-19 = test system: SNB-19
U-251 = test system: U-251
SNB-78 = test system: SNB-78
MCF7 = test system: MCF7
NCI/ADR-RES = test system: NCI/ADR-RES
HT-29 = test system: HT-29
CCRF-CEM = test system: CCRF-CEM
COLO 205 = test system: COLO 205
UACC-257 = test system: UACC-257
SK-MEL-5 = test system: SK-MEL-5
BT-549 = test system: BT-549
SK-MEL-2 = test system: SK-MEL-2
TK-10 = test system: TK-10
MDA-MB-231 = test system: MDA-MB-231
SR = test system: SR
SF-539 = test system: SF-539
RXF 393 = test system: RXF 393
OVCAR-5 = test system: OVCAR-5
UACC-62 = test system: UACC-62
RPMI-8226 = test system: RPMI-8226
DMS-273 = test system: DMS-273
KM-20L2 = test system: KM-20L2
HCT-116 = test system: HCT-116
HOP-62 = test system: HOP-62
M19-MEL = test system: M19-MEL
SK-MEL-28 = test system: SK-MEL-28
MDA-N = test system: MDA-N
UO-31 = test system: UO-31
SW-620 = test system: SW-620
A498 = test system: A498
RXF 631 = test system: RXF 631
OVCAR-4 = test system: OVCAR-4
MDA-MB-435 = test system: MDA-MB-435
EKVX = test system: EKVX
Malme-3M = test system: Malme-3M
HCT-15 = test system: HCT-15
786-0 = test system: 786-0
NCI-H226 = test system: NCI-H226
CAKI-1 = test system: CAKI-1
NCI-H23 = test system: NCI-H23
HOP-18 = test system: HOP-18
LOX IMVI = test system: LOX IMVI

**Q.** Which GI50 (HL-60) does the source give for `Cc1cc2c(cc1C)[n+]([O-])c(C(=O)/C=C/c1ccc3c(c1)OCO3)c(C)[n+]2[O-]` here?
**A.** The GI50 was > 100 µM (inactive).

**Q.** What about the GI50 (HCC 2998) of the same molecule?
**A.** The GI50 was > 78.5 µM (inactive).

**Q.** What about the GI50 (OVCAR-3) of the same molecule?
**A.** The GI50 was > 86.1 µM (inactive).

**Q.** What about the GI50 (IGROV-1) of the same molecule?
**A.** Its GI50 is 48.4 µM (inactive).

**Q.** And the GI50 (SF-295)?
**A.** Its GI50 is 21.1 µM (inactive).

**Q.** And the GI50 (MOLT-4)?
**A.** Its GI50 is > 100 µM (inactive).

**Q.** And the GI50 (NCI-H460)?
**A.** Its GI50 is > 91.8 µM (inactive).

**Q.** What about the GI50 (M14) of the same molecule?
**A.** Its GI50 is 98.9 µM (inactive).

**Q.** What about the GI50 (SF-268) of the same molecule?
**A.** The GI50 was 29.4 µM (inactive).

**Q.** What about the GI50 (SNB-75) of the same molecule?
**A.** Its GI50 is 19.7 µM (inactive).

**Q.** And the GI50 (OVCAR-8)?
**A.** Its GI50 is > 100 µM (inactive).

**Q.** What about the GI50 (DLD-1) of the same molecule?
**A.** Its GI50 is > 100 µM (inactive).

**Q.** And the GI50 (SN12C)?
**A.** Its GI50 is > 78.7 µM (inactive).

**Q.** What about the GI50 (DMS-114) of the same molecule?
**A.** Its GI50 is 33.1 µM (inactive).

**Q.** What about the GI50 (NCI-H522) of the same molecule?
**A.** Its GI50 is 27.6 µM (inactive).

**Q.** What about the GI50 (HOP-92) of the same molecule?
**A.** Its GI50 is 25.6 µM (inactive).

**Q.** What about the GI50 (K562) of the same molecule?
**A.** Its GI50 is > 100 µM (inactive).

**Q.** What about the GI50 (T47D) of the same molecule?
**A.** Its GI50 is > 86.1 µM (inactive).

**Q.** What about the GI50 (XF498) of the same molecule?
**A.** Its GI50 is 27 µM (inactive).

**Q.** What about the GI50 (KM12) of the same molecule?
**A.** Its GI50 is > 100 µM (inactive).

**Q.** And the GI50 (PC-3)?
**A.** The GI50 was > 100 µM (inactive).

**Q.** What about the GI50 (SK-OV-3) of the same molecule?
**A.** Its GI50 is 19.8 µM (inactive).

**Q.** And the GI50 (A549)?
**A.** Its GI50 is > 92.9 µM (inactive).

**Q.** What about the GI50 (Hs-578T) of the same molecule?
**A.** Its GI50 is 26.2 µM (inactive).

**Q.** And the GI50 (DU-145)?
**A.** The GI50 was > 80.5 µM (inactive).

**Q.** And the GI50 (ACHN)?
**A.** Its GI50 is 40.9 µM (inactive).

**Q.** And the GI50 (SNB-19)?
**A.** The GI50 was 27.5 µM (inactive).

**Q.** And the GI50 (U-251)?
**A.** The GI50 was 25.4 µM (inactive).

**Q.** What about the GI50 (SNB-78) of the same molecule?
**A.** Its GI50 is 60.3 µM (inactive).

**Q.** And the GI50 (MCF7)?
**A.** Its GI50 is > 100 µM (inactive).

**Q.** What about the GI50 (NCI/ADR-RES) of the same molecule?
**A.** The GI50 was 74.6 µM (inactive).

**Q.** And the GI50 (HT-29)?
**A.** Its GI50 is > 100 µM (inactive).

**Q.** And the GI50 (CCRF-CEM)?
**A.** The GI50 was > 100 µM (inactive).

**Q.** What about the GI50 (COLO 205) of the same molecule?
**A.** The GI50 was > 100 µM (inactive).

**Q.** What about the GI50 (UACC-257) of the same molecule?
**A.** The GI50 was > 88.7 µM (inactive).

**Q.** And the GI50 (SK-MEL-5)?
**A.** Its GI50 is > 100 µM (inactive).

**Q.** What about the GI50 (BT-549) of the same molecule?
**A.** Its GI50 is 69.3 µM (inactive).

**Q.** And the GI50 (SK-MEL-2)?
**A.** The GI50 was 27.9 µM (inactive).

**Q.** And the GI50 (TK-10)?
**A.** The GI50 was 23.9 µM (inactive).

**Q.** And the GI50 (MDA-MB-231)?
**A.** Its GI50 is > 48.9 µM (inactive).

**Q.** And the GI50 (SR)?
**A.** Its GI50 is > 100 µM (inactive).

**Q.** And the GI50 (SF-539)?
**A.** The GI50 was 56.4 µM (inactive).

**Q.** And the GI50 (RXF 393)?
**A.** The GI50 was 28.7 µM (inactive).

**Q.** And the GI50 (OVCAR-5)?
**A.** Its GI50 is > 100 µM (inactive).

**Q.** What about the GI50 (UACC-62) of the same molecule?
**A.** The GI50 was 29.9 µM (inactive).

**Q.** What about the GI50 (RPMI-8226) of the same molecule?
**A.** The GI50 was > 100 µM (inactive).

**Q.** What about the GI50 (DMS-273) of the same molecule?
**A.** The GI50 was 27 µM (inactive).

**Q.** And the GI50 (KM-20L2)?
**A.** The GI50 was > 100 µM (inactive).

**Q.** And the GI50 (HCT-116)?
**A.** The GI50 was 53.8 µM (inactive).

**Q.** What about the GI50 (HOP-62) of the same molecule?
**A.** The GI50 was 21 µM (inactive).

**Q.** What about the GI50 (M19-MEL) of the same molecule?
**A.** Its GI50 is > 100 µM (inactive).

**Q.** What about the GI50 (SK-MEL-28) of the same molecule?
**A.** The GI50 was > 100 µM (inactive).

**Q.** And the GI50 (MDA-N)?
**A.** The GI50 was > 100 µM (inactive).

**Q.** And the GI50 (UO-31)?
**A.** The GI50 was > 100 µM (inactive).

**Q.** And the GI50 (SW-620)?
**A.** The GI50 was > 100 µM (inactive).

**Q.** What about the GI50 (A498) of the same molecule?
**A.** Its GI50 is 71.6 µM (inactive).

**Q.** And the GI50 (RXF 631)?
**A.** The GI50 was 10.1 µM (inactive).

**Q.** And the GI50 (OVCAR-4)?
**A.** The GI50 was > 100 µM (inactive).

**Q.** And the GI50 (MDA-MB-435)?
**A.** The GI50 was > 100 µM (inactive).

**Q.** And the GI50 (EKVX)?
**A.** Its GI50 is > 70 µM (inactive).

**Q.** And the GI50 (Malme-3M)?
**A.** The GI50 was 73.1 µM (inactive).

**Q.** What about the GI50 (HCT-15) of the same molecule?
**A.** Its GI50 is over 100 µM.

**Q.** And the GI50 (786-0)?
**A.** The GI50 was 36.6 µM (inactive).

**Q.** And the GI50 (NCI-H226)?
**A.** The GI50 was 86.5 µM (inactive).

**Q.** What about the GI50 (CAKI-1) of the same molecule?
**A.** Its GI50 is 61.1 µM (inactive).

**Q.** What about the GI50 (NCI-H23) of the same molecule?
**A.** The GI50 was 38.3 µM (inactive).

**Q.** And the GI50 (HOP-18)?
**A.** Its GI50 is > 100 µM (inactive).

**Q.** And the GI50 (LOX IMVI)?
**A.** The GI50 was 36.7 µM (inactive).

From ChEMBL document CHEMBL1201862, “PubChem BioAssay data set” (2004)
